Source: patent publication US7846959B2, “Raf modulators and methods of use” (Exelixis, Inc., priority 2004, dated 2010)
Like-named read-outs stand apart in the source and are kept apart here.

Legend:
c-Raf = c-Raf (Homo sapiens, UniProt P04049); test: Luciferase-coupled chemiluminescence kinase assay (ATP consumption), c-Raf; format: biochemical
Summary of the method: (§1)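 ATP depletion, limited to 25-60%, read by luciferase-luciferin chemiluminescence gives IC50 values. Before the 3 hr ambient-temperature kinase reaction with ATP, compound and […] enzyme were preincubated 30 minutes at room temperature in Tris pH 7.5 buffer with MgCl2, TX-100 and DTT.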

B-Raf = B-Raf (Homo sapiens, UniProt P15056); test: Luciferase-coupled chemiluminescence kinase assay (ATP consumption), B-Raf; format: biochemical
B-Raf, sequence (P15056 whole entry): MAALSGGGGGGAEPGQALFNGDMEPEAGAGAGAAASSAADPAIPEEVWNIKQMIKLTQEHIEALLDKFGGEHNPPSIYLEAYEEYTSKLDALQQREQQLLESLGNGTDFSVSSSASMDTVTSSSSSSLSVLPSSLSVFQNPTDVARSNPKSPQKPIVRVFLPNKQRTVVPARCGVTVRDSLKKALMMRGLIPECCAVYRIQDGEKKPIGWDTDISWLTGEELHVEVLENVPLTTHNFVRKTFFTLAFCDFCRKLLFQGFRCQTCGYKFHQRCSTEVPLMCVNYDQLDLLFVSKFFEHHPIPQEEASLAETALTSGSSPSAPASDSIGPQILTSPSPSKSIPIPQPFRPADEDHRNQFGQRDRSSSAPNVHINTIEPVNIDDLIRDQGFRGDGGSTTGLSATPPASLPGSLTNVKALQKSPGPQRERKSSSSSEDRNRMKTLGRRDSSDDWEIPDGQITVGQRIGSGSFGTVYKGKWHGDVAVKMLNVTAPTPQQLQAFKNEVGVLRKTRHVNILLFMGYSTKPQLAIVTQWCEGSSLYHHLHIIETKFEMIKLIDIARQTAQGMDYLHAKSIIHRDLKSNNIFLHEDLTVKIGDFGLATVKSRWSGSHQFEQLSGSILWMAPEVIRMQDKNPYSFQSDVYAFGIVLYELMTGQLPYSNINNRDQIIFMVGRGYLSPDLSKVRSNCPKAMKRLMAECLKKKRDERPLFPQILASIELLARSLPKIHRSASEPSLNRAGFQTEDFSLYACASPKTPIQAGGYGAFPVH
Summary of the method: as §1

[1] = read-out: cRaf-1 (inhibition indicated as IC50)
[2] = read-out: bRaf (inhibition indicated as IC50)

c-Raf, sequence (P04049 whole entry): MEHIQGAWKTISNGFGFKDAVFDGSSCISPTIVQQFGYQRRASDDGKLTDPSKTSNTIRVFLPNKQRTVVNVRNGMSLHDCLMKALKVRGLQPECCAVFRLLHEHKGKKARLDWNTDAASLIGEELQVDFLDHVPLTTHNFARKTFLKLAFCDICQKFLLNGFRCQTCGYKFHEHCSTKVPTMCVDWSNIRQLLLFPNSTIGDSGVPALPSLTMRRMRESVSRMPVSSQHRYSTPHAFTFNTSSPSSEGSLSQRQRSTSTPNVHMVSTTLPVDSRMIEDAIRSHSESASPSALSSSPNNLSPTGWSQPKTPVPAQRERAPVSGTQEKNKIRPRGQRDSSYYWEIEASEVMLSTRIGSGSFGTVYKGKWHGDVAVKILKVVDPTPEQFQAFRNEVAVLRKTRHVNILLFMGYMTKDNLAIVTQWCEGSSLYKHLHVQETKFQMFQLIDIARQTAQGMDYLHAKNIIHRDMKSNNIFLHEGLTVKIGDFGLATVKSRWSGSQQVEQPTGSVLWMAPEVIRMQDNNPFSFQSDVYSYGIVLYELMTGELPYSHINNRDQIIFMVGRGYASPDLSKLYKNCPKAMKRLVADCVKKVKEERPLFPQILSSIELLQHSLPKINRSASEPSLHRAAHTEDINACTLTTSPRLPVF

Compound	IC50 (c-Raf; [1])	IC50 (B-Raf; [2])	IC50 (c-Raf; read-out: cRaf-1 IC50)	IC50 (B-Raf; read-out: bRaf IC50)
O=C(Nc1nc2ccc(C3(O)c4ccccc4C(=O)N3c3cccc(Cl)c3F)cc2[nH]1)OCC(F)F (stereo not shown) [Entry 331, 2,2-difluoroethyl {6-[2-(3-chloro-2-fluorophenyl)-1-hydroxy-3-oxo-2,3-dihydro-1H-isoindol-1-yl]-1H-benzimidazol-2-yl}carbamate]	< 100 nM	< 100 nM		
O=C1COc2ccc(C3(O)c4ccccc4C(=O)N3c3cccc(C(F)(F)F)c3)cc2N1 (stereo not shown) [Entry 61, 6-{1-hydroxy-3-oxo-2-[3-(trifluoromethyl)phenyl]-2,3-dihydro-1H-isoindol-1-yl}-2H-1,4-benzoxazin-3(4H)-one]			100 to 1000 nM	1000 to 10000 nM
COC(=O)Nc1nc2cc(C3(O)c4ccccc4C(=O)N3c3cc(F)cc(F)c3)ccc2[nH]1 (stereo not shown) [Entry 156, methyl {5-[2-(3,5-difluorophenyl)-1-hydroxy-3-oxo-2,3-dihydro-1H-isoindol-1-yl]-1H-benzimidazol-2-yl}carbamate]			100 to 1000 nM	100 to 1000 nM
COC(=O)Nc1nc2cc(C3(O)c4ccccc4C(=O)N3c3cccc(Oc4ccccc4)c3)ccc2[nH]1 (stereo not shown) [Entry 220, methyl (5-{1-hydroxy-3-oxo-2-[3-(phenyloxy)phenyl]-2,3-dihydro-1H-isoindol-1-yl}-1H-benzimidazol-2-yl)carbamate]			< 100 nM	< 100 nM
O=C(Nc1nc2cc(C3(O)c4ccccc4C(=O)N3c3cccc(Cl)c3F)ccc2[nH]1)C1CCC1 (stereo not shown) [Entry 327, N-{5-[2-(3-chloro-2-fluorophenyl)-1-hydroxy-3-oxo-2,3-dihydro-1H-isoindol-1-yl]-1H-benzimidazol-2-yl}cyclobutanecarboxamide]	< 100 nM	< 100 nM		
C=Cc1cccc(N2C(=O)c3ccccc3C2(O)c2ccc3[nH]c(NC(=O)OC)nc3c2)c1 (stereo not shown) [Entry 257, methyl {5-[2-(3-ethenylphenyl)-1-hydroxy-3-oxo-2,3-dihydro-1H-isoindol-1-yl]-1H-benzimidazol-2-yl}carbamate]			< 100 nM	< 100 nM
O=C(Nc1nc2ccc(C3(O)c4ccccc4C(=O)N3c3cccc(Cl)c3F)cc2[nH]1)OCCN1CCCC1=O (stereo not shown) [Entry 323, 2-(2-oxopyrrolidin-1-yl)ethyl {6-[2-(3-chloro-2-fluorophenyl)-1-hydroxy-3-oxo-2,3-dihydro-1H-isoindol-1-yl]-1H-benzimidazol-2-yl}carbamate]	< 100 nM	< 100 nM		
Cc1ccc(Cl)cc1N1C(=O)c2ccccc2C1(O)c1ccc2nc(Nc3cnccn3)[nH]c2c1 (stereo not shown) [Entry 389, 2-(5-chloro-2-methylphenyl)-3-hydroxy-3-[2-(pyrazin-2-ylamino)-1H-benzimidazol-6-yl]-2,3-dihydro-1H-isoindol-1-one]	< 100 nM	< 100 nM		
COC(=O)Nc1nc2cc(C3(O)c4ccccc4C(=O)N3c3cc(Cl)c(F)c(Cl)c3)ccc2[nH]1 (stereo not shown) [Entry 246, methyl {5-[2-(3,5-dichloro-4-fluorophenyl)-1-hydroxy-3-oxo-2,3-dihydro-1H-isoindol-1-yl]-1H-benzimidazol-2-yl}carbamate]			100 to 1000 nM	1000 to 10000 nM
COC(=O)Nc1nc2cc(C3(O)c4ccccc4C(=O)N3c3ccc(C)cc3)ccc2[nH]1 (stereo not shown) [Entry 146, methyl {5-[1-hydroxy-2-(4-methylphenyl)-3-oxo-2,3-dihydro-1H-isoindol-1-yl]-1H-benzimidazol-2-yl}carbamate]			100 to 1000 nM	100 to 1000 nM
CC#Cc1cccc(N2C(=O)c3ccccc3C2(O)c2ccc3[nH]c(NC(=O)OC)nc3c2)c1F (stereo not shown) [Entry 370, methyl {5-[2-(2-fluoro-3-prop-1-yn-1-ylphenyl)-1-hydroxy-3-oxo-2,3-dihydro-1H-isoindol-1-yl]-1H-benzimidazol-2-yl}carbamate]	100 to 1000 nM	100 to 1000 nM		
COC(=O)Nc1nc2cc(C3(O)c4ccccc4C(=O)N3[C@H](C)c3ccccc3)ccc2[nH]1 (stereo partly drawn) [Entry 104, methyl (5-{1-hydroxy-3-oxo-2-[(1R)-1-phenylethyl]-2,3-dihydro-1H-isoindol-1-yl}-1H-benzimidazol-2-yl)carbamate]			< 100 nM	< 100 nM
O=C1c2ccccc2C(O)(c2ccc3[nH]c(Nc4ccccn4)nc3c2)N1c1cccc(Cl)c1F (stereo not shown) [Entry 332, 2-(3-chloro-2-fluorophenyl)-3-hydroxy-3-[2-(pyridin-2-ylamino)-1H-benzimidazol-5-yl]-2,3-dihydro-1H-isoindol-1-one]	< 100 nM	< 100 nM		
CCOC1(c2ccc3[nH]c(NC(=O)OC)nc3c2)c2ccccc2C(=O)N1Cc1ccccc1 (stereo not shown) [Entry 92, methyl {5-[1-(ethyloxy)-3-oxo-2-(phenylmethyl)-2,3-dihydro-1H-isoindol-1-yl]-1H-benzimidazol-2-yl}carbamate]			100 to 1000 nM	100 to 1000 nM
NS(=O)(=O)c1cccc(N2C(=O)c3ccccc3C2(O)c2ccc3c(c2)NC(=O)CO3)c1 (stereo not shown) [Entry 62, 3-[1-hydroxy-3-oxo-1-(3-oxo-3,4-dihydro-2H-1,4-benzoxazin-6-yl)-1,3-dihydro-2H-isoindol-2-yl]benzenesulfonamide]			1000 to 10000 nM	≥ 10000 nM
CC(C)c1cccc(N2C(=O)c3ccccc3C2(O)c2ccc3c(c2)NC(=O)CO3)c1 (stereo not shown) [Entry 59, 6-{1-hydroxy-2-[3-(1-methylethyl)phenyl]-3-oxo-2,3-dihydro-1H-isoindol-1-yl}-2H-1,4-benzoxazin-3(4H)-one]			100 to 1000 nM	100 to 1000 nM
O=C(Nc1nc2ccc(C3(O)c4ccccc4C(=O)N3c3cccc(Cl)c3F)cc2[nH]1)OCC1CCCN2CCCCC12 (stereo not shown) [Entry 304, octahydro-2H-quinolizin-1-ylmethyl {6-[2-(3-chloro-2-fluorophenyl)-1-hydroxy-3-oxo-2,3-dihydro-1H-isoindol-1-yl]-1H-benzimidazol-2-yl}carbamate]	< 100 nM	< 100 nM		
COC(=O)Nc1nc2cc(C3(O)c4ccccc4C(=O)N3c3cc(Cl)cc(F)c3F)ccc2[nH]1 (stereo not shown) [Entry 299, methyl {5-[2-(5-chloro-2,3-difluorophenyl)-1-hydroxy-3-oxo-2,3-dihydro-1H-isoindol-1-yl]-1H-benzimidazol-2-yl}carbamate]	< 100 nM	< 100 nM		
COC(=O)Nc1nc2ccc(C(=O)c3ccccc3C(=O)Nc3ccc(F)c(Br)c3)cc2[nH]1 [Entry 406, methyl {6-[(2-{[(3-bromo-4-fluorophenyl)amino]carbonyl}phenyl)carbonyl]-1H-benzimidazol-2-yl}carbamate]	< 100 nM	< 100 nM		
COC(=O)Nc1nc2cc(C3(O)c4ccccc4C(=O)N3Cc3ccc(C)cc3)ccc2[nH]1 (stereo not shown) [Entry 132, methyl (5-{1-hydroxy-2-[(4-methylphenyl)methyl]-3-oxo-2,3-dihydro-1H-isoindol-1-yl}-1H-benzimidazol-2-yl)carbamate]			100 to 1000 nM	1000 to 10000 nM
COC(=O)Nc1nc2cc(C3(O)c4ccccc4C(=O)N3[C@@H](C)c3ccccc3)ccc2[nH]1 (stereo partly drawn) [Entry 105, methyl (5-{1-hydroxy-3-oxo-2-[(1S)-1-phenylethyl]-2,3-dihydro-1H-isoindol-1-yl}-1H-benzimidazol-2-yl)carbamate]			1000 to 10000 nM	1000 to 10000 nM
C#Cc1cccc(N2C(=O)c3ccccc3C2(O)c2ccc3[nH]c(NC(=O)OC)nc3c2)c1C (stereo not shown) [Entry 372, methyl {5-[2-(3-ethynyl-2-methylphenyl)-1-hydroxy-3-oxo-2,3-dihydro-1H-isoindol-1-yl]-1H-benzimidazol-2-yl}carbamate]	< 100 nM	< 100 nM		
CC(C)OC(=O)Nc1nc2ccc(C3(O)c4ccccc4C(=O)N3c3cccc(Cl)c3F)cc2[nH]1 (stereo not shown) [Entry 333, 1-methylethyl {6-[2-(3-chloro-2-fluorophenyl)-1-hydroxy-3-oxo-2,3-dihydro-1H-isoindol-1-yl]-1H-benzimidazol-2-yl}carbamate]	< 100 nM	< 100 nM		
O=C1COc2ccc(C3(O)c4ccccc4C(=O)N3c3ccc(F)c(C(F)(F)F)c3)cc2N1 (stereo not shown) [Entry 64, 6-{2-[4-fluoro-3-(trifluoromethyl)phenyl]-1-hydroxy-3-oxo-2,3-dihydro-1H-isoindol-1-yl}-2H-1,4-benzoxazin-3(4H)-one]			≥ 10000 nM	≥ 10000 nM
COC(=O)Nc1nc2cc(C3(O)c4ccccc4C(=O)N3c3ccc(F)c(Cl)c3F)ccc2[nH]1 (stereo not shown) [Entry 252, methyl {5-[2-(3-chloro-2,4-difluorophenyl)-1-hydroxy-3-oxo-2,3-dihydro-1H-isoindol-1-yl]-1H-benzimidazol-2-yl}carbamate]			< 100 nM	< 100 nM
COC(=O)Nc1nc2cc(C3(O)c4ccccc4C(=O)N3c3cccc(N4CCOCC4)c3)ccc2[nH]1 (stereo not shown) [Entry 290, methyl {5-[1-hydroxy-2-(3-morpholin-4-ylphenyl)-3-oxo-2,3-dihydro-1H-isoindol-1-yl]-1H-benzimidazol-2-yl}carbamate]	1000 to 10000 nM	1000 to 10000 nM		
O=C1COc2ccc(C3(O)c4ccccc4C(=O)N3Cc3cccc(F)c3)cc2N1 (stereo not shown) [Entry 36, 6-{2-[(3-fluorophenyl)methyl]-1-hydroxy-3-oxo-2,3-dihydro-1H-isoindol-1-yl}-2H-1,4-benzoxazin-3(4H)-one]			1000 to 10000 nM	1000 to 10000 nM
O=C1COc2ccc(C3(O)c4ccccc4C(=O)N3c3cccc(CO)c3)cc2N1 (stereo not shown) [Entry 82, 6-{1-hydroxy-2-[3-(hydroxymethyl)phenyl]-3-oxo-2,3-dihydro-1H-isoindol-1-yl}-2H-1,4-benzoxazin-3(4H)-one]			1000 to 10000 nM	1000 to 10000 nM
O=C(Nc1nc2cc(C3(O)c4ccccc4C(=O)N3Cc3ccccc3)ccc2[nH]1)OCCF (stereo not shown) [Entry 126, 2-fluoroethyl {5-[1-hydroxy-3-oxo-2-(phenylmethyl)-2,3-dihydro-1H-isoindol-1-yl]-1H-benzimidazol-2-yl}carbamate]			< 100 nM	< 100 nM
